Patent US8163894B2, “DNA for eukaryotic expression of CymR” (National Research Council of Canada, priority 2001, dated 2012)
Like-named read-outs stand apart in the source and are kept apart here.

Columns and labels:
[1] = system: 293 CuO-GFP clone 13; assay: Testing of cumate analogues as effector molecule (FIG. 16); type: cell-based
Excerpt: Of course cumate can be substituted for various cumate analogues also referred to as effector molecule as described before.
The Deposits were received by the authority on Apr. 10, 2002, and were given accession number IDA-100402-1 and IDA-100402-2, respectively. 293 CuO-GFP clone 13 was also deposited on Apr. 10, 2002 in the same IDA and was given accession number IDA-100401-3.

[2] = system: CymR-mediated expression (P2-cymlacZ fusion system); assay: Induction of expression in the P2-cymlacZ fusion system by candidate effectors; type: cell-based, Pseudomonas putida
Excerpt: The need to solubilize p-cumate (p-cumic acid) in organic solvent (e.g. ethanol or dimethyl formamide) is a great disadvantage. The present invention thus provides water-soluble effectors as well as possibly expanding the spectrum of inducers beyond p-cumate. At first, cumic alcohol, 4-methyl benzylalcohol, ethyltoluene, indole-2-carboxylic acid, indole-3-carboxylic acid, benzoic acid, 3- and 4-hydroxybenzoic acids, 3,4-dihyroxybenzoic acid and 2,4-dihydrobenzoic acid were tried. […] In this P2-cymlacZ fusion system, the threshold cumate concentration for induction is in the order of 0.002 millimolar (mM).
The sodium salt of cumic acid was also tested vs cumic acid (taken as cumate).
Both sodium benzoate and sodium toluate are ineffective.

[3] = system: 293-CymR clone 21; type: cell-based; conditions: 200 μg/ml cumate, 48 h post-transfection
[4] = system: 293-CuO-GFPq13# cells; assay: GFP expression from stably integrated pAdCMV5-CuO-GFPq in 293-CuO-GFPq13#; type: cell-based
Description: 1×10^6 293-CymR clone 21 were transfected with 10 μg of pAdCMV5-CuO-GFPq. GFP expression was induced by the addition of 200 μg/ml cumate and individual GFP positive cells were picked by Quixell™ (Caron, A. W., et al., Methods in cell science 22: 137-145, 2000).
293-CuO-GFPq13# were cultured in the presence and absence of cumate for 48 h. Photographs were taken using an inverted fluorescence microscope (Leica, Wetzlar, Germany). […] In the OFF state (FIG. 15B) only two GFP-positive cells are visible in the microscopic field.
Total GFP fluorescence was measured in the ON (9255) and OFF (3.75) states using an EPICS-XL flow cytometer (Coulter). The ON/OFF ratio for this clone was […].

[5] = system: CHO-cTA clones (cumate transactivator); assay: Adenoviral infection of CHO-cTA clones, total GFP fluorescence by flow cytometry; type: cell-based
Description: 1×10^6 CHO cells were transfected with 5 μg of pMPG-cTA-tk-neo-nls using 12 μl of LIPOFECTAMINE 2000 according to the instructions of the manufacturer. 1200 μg/ml G418 was added to the growth medium 48 h after transfection to select a pool of G418-resistant cells. Individual clones (CHO-cTA) were isolated from this pool by the method of limiting dilution.
CHO-cTA clones were infected with AdCMV5GFPq or AdCR5GFPq at MOIs of 100, 300 and 900 in the presence or absence of 200 μg/ml cumate. Forty-eight hours post-infection, cells were fixed in 2% paraformaldehyde in PBS. Total GFP fluorescence of the infected population was measured using an EPICS-XL flow cytometer (Coulter).

[6] = biological target: CymR-VP16 transactivator in HeLa cells (Pseudomonas putida, UniProt O33453); assay: Cumate switch strategy 1: transient co-transfection, β-gal, HeLa cells; type: cell-based
Description: Transient transfections in 293 and HeLa cells were carried out using the calcium phosphate technique. One (1) ml of DNA-calcium phosphate precipitate contained 5 μg reporter, 250 ng activator/repressor (unless mentioned otherwise) and 3 μg seap in a total of 10 μg DNA. This was divided equally between two 60 mm plates, each containing 10^6 293 cells. One of the two plates received in addition 200 μg/ml cumate. Transient transfections in BMAD78-42 were carried out using Geneporter™ according to manufacturers directions. Briefly, 3 μg DNA (2 μg reporter, 25 ng transactivator and 0.5 μg seap) in 500 μl DMEM was added to 6×10^5 BMAd78-42 cells in DMEM. After 3 h 1 ml DMEM supplemented with 20% serum was added to the plates. […]
Measurement of Seap and β-gal activity Seap activity was measured in 50 μl of cell culture medium by adding 50 μl of 2× seap buffer (1M diethanolamine PH 9.8, 2 mM MgCl2, 10 mM 1-homoarginine and 20 mM p-nitrophenyl phosphate, disodium, hexahydrate Sigma 104 phosphatase substrate) and incubating at room temperature. OD405 was read using a plate reader at different intervals. This information was used to ensure that the enzyme activity was measured under conditions where the substrate was in excess. β-galactosidase activity was measured in transfected cell extracts. […] OD420 was measured at regular intervals until the reaction appeared to plateau. […]

[7] = biological target: CymR-VP16 transactivator in 293 cells (Pseudomonas putida, UniProt O33453); type: cell-based
Description: Transient transfections in 293 and HeLa cells were carried out using the calcium phosphate technique. One (1) ml of DNA-calcium phosphate precipitate contained 5 μg reporter, 250 ng activator/repressor (unless mentioned otherwise) and 3 μg seap in a total of 10 μg DNA. This was divided equally between two 60 mm plates, each containing 10^6 293 cells. One of the two plates received in addition 200 μg/ml cumate. Transient transfections in BMAD78-42 were carried out using Geneporter™ according to manufacturers directions. Briefly, 3 μg DNA (2 μg reporter, 25 ng transactivator and 0.5 μg seap) in 500 μl DMEM was added to 6×10^5 BMAd78-42 cells in DMEM. After 3 h 1 ml DMEM supplemented with 20% serum was added to the plates. Half the samples received DMEM supplemented with 20% serum and 400 μg/ml cumate.
Measurement of Seap and β-gal activity Seap activity was measured in 50 μl of cell culture medium by adding 50 μl of 2× seap buffer (1M diethanolamine PH 9.8, 2 mM MgCl2, 10 mM 1-homoarginine and 20 mM p-nitrophenyl phosphate, disodium, hexahydrate Sigma 104 phosphatase substrate) and incubating at room temperature. OD405 was read using a plate reader at different intervals. This information was used to ensure that the enzyme activity was measured under conditions where the substrate was in excess. β-galactosidase activity was measured in transfected cell extracts. Cells were lysed 48 h post-transfection by three freeze-thaw cycles in 0.25M Tris.Hcl pH8. The cell lysate was centrifuged at 14,000×g and enzyme (β-galactosidase) activity was measured in the supernatant (cell extract) using a colorimetric assay containing 1 mM MgCl2, 0.9 mg/ml ONPG, and 66 mM sodium phosphate (pH 7.5). Reactions were incubated at 37° C. until a faint yellow color had developed. OD420 was measured at regular intervals until the reaction appeared to plateau. To measure low level activity (basal activity in the absence of transactivation) a chemiluminescent substrate was used. The reaction was performed using a kit from Roche diagnostics according to the instructions of the manufacturer.
To test the system, reporter and activator constructs as described in Example I above, were co-transfected into 293 cells by the calcium-phosphate technique. A plasmid carrying the secreted alkaline phosphatase coding sequence under the control of a constitutive promoter was included in all transfections and seap activity in the cell culture medium was used to normalize for transfection efficiency.

[8] = system: mammalian cells; assay: Effect of cumate on morphology, growth and toxicity in mammalian cells; type: cell-based
[9] = biological target: CymR-VP16 transactivator in BMAdE1/78-42 cells (Pseudomonas putida, UniProt O33453); type: cell-based
Description: Measurement of Seap and β-gal activity Seap activity was measured in 50 μl of cell culture medium by adding 50 μl of 2× seap buffer (1M diethanolamine PH 9.8, 2 mM MgCl2, 10 mM 1-homoarginine and 20 mM p-nitrophenyl phosphate, disodium, hexahydrate Sigma 104 phosphatase substrate) and incubating at room temperature. OD405 was read using a plate reader at different intervals. This information was used to ensure that the enzyme activity was measured under conditions where the substrate was in excess. β-galactosidase activity was measured in transfected cell extracts. Cells were lysed 48 h post-transfection by three freeze-thaw cycles in 0.25M Tris.Hcl pH8. The cell lysate was centrifuged at 14,000×g and enzyme (β-galactosidase) activity was measured in the supernatant (cell extract) using a colorimetric assay containing 1 mM MgCl2, 0.9 mg/ml ONPG, and 66 mM sodium phosphate (pH 7.5). […] OD420 was measured at regular intervals until the reaction appeared to plateau. […]

[10] = system: 293-CymR cells; type: cell-based; conditions: 293-CymR infected with rAd expressing VSVg
[11] = biological target: T1, CymR repressor in 293 cells (Pseudomonas putida, UniProt O33453); assay: Strategy 2: CymR-mediated repression of CMV5-operator LacZ reporters, transient transfection in 293 cells; type: cell-based
T1 construct: expressed in transfected cells; host or cells: 293 cells

[12] = system: cumate activator (rAd vectors); assay: Co-infection with recombinant adenoviral reporter and activator viruses
[13] = system: 293-CymR clones; assay: Infection of 293-CymR clones with AdCMV5-Og-LacZ, β-galactosidase activity; type: cell-based; conditions: 200 μg/ml cumate
Description: 1×10^6 293 cells were transfected with 10 μg of pCymR/tk-neo by the calcium phosphate technique. 400 μg/ml G418 was added to the growth medium 48 h after transfection to select a pool of G418-resistant cells. Individual clones (293-CymR) were isolated from this pool by the method of limiting dilution.
293CymR clones were infected with AdCMV5-Og-LacZ in the presence and absence of 200 μg/ml cumate. β-galactosidase activity was measured 48 h post-infection.

[14] = Water solubility of effectors; type: physicochemical

T1 sequence (O33453 whole entry): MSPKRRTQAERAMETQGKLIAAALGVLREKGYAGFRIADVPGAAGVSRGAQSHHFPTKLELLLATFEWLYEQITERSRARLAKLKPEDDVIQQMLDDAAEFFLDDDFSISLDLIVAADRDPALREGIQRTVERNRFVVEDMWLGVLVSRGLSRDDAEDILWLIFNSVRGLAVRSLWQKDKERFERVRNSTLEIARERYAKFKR
CymR-VP16 transactivator in 293 cells, sequence (O33453 whole entry, added parts left off): as the sequence (O33453 whole entry) above
CymR-VP16 transactivator in HeLa cells, sequence (O33453 whole entry, added parts left off): as the sequence (O33453 whole entry) above
CymR-VP16 transactivator in BMAdE1/78-42 cells, sequence (O33453 whole entry, added parts left off): as the sequence (O33453 whole entry) above

Q: For `CCNc1ccc(C(=O)O)cc1` [C13, p-N-ethylaminobenzoic acid], which “activity as activator (effector molecule)” value (shortened to “activity as activator”) [1] is on record?
A: good activators

Q: Which “ability to act as inducer” value [2] does the source give for `CC(C)c1ccc(CO)cc1` [cumic alcohol] here?
A: none of these compounds could act as effective inducers

Q: Which “ability to act as inducer” value [2] does the source give for `O=C(O)c1ccc(O)c(O)c1` [3,4-dihyroxybenzoic acid] here?
A: none of these compounds could act as effective inducers

Q: Which results are given for `CC(C)c1ccc(C(=O)O)cc1` [cumate, cumic acid]?
A: VSVg expression on addition of cumate (western) [3]: clearly evident; cells positive for GFP expression in the presence of cumate ([4]; 48 h culture): 100%; ON/OFF ratio of total GFP fluorescence ([4]; clone 293-CuO-GFPq13#): 246; Total GFP fluorescence, ON state ([4]; with cumate, flow cytometer): 9255; GFP expression over mock infected cells after addition of cumate ([5]; AdCR5-GFPq MOI 100, 200 μg/ml cumate): 2 fold; GFP expression over mock infected cells after addition of cumate ([5]; AdCR5-GFPq MOI 300, 200 μg/ml cumate): 4.5 fold; GFP expression over mock infected cells after addition of cumate ([5]; AdCR5-GFPq MOI 900, 200 μg/ml cumate): 20.6 fold; decrease in activation by the transactivator on addition of cumate ([6]; pAdcTA1(+nls)): 9.4 fold; reduction in activation on addition of cumate ([6]; pAdcTA1(−nls)): 34 fold; activity as activator (effector molecule) [1]: good activators; reduction of activation on addition of cumate ([7]; pAdCR5LacZ + pAdcTA1(+nls), 200 μg/ml cumate): 78%; reduction of activation on addition of cumate ([7]; pAdcTA1(−nls), 50 μg/ml cumate): 86%; reduction of activation on addition of cumate ([7]; pAdcTA1(−nls), 100 μg/ml cumate): 87%; reduction of activation on addition of cumate ([7]; pAdcTA1(−nls), 200 μg/ml cumate): 89%; effects on morphology or growth rates ([8]; 200 μg/ml cumate in media, 4 weeks): No visible effects; toxicity to mammalian cells ([8]; concentrations that effectively regulate gene expression): does not appear to be toxic; threshold cumate concentration for induction ([2]; P2-cymlacZ fusion system): ~0.002 mM; reduction of activation on addition of cumate ([9]; BMAdE1/78-42, pAdcTA1(+nls)): 3.9 fold; reduction in activation on addition of cumate ([9]; BMAdE1/78-42, pAdcTA1(−nls)): 22 fold; induction of VSVg and syncitia formation on addition of cumate [10]: induces the expression of VSVg; activity of the unrepressed state recovered on addition of cumate ([11]; nls-containing repressor, pAdCMV5-Og-LacZ): 61%; relief of repression on addition of cumate ([11]; nls-containing repressor, pAdCMV5-Os-LacZ): relieved the repression completely; relief of repression on addition of cumate ([11]; pAdCymR, both pAdCMV5-Os-LacZ and pAdCMV5-Og-LacZ): relieved the repression totally; share of the increase obliterated by addition of cumate ([12]; reporter moi 10, activator moi 0.1): 95%; share of the increase obliterated by addition of cumate ([12]; reporter moi 10, activator moi 1): 98%; ON/OFF ratio (β-gal with vs without cumate) ([13]; 293-CymR clone 21, AdCMV5-Og-LacZ): 19; ON/OFF ratio (β-gal with vs without cumate) ([13]; 293-CymR clone 22, AdCMV5-Og-LacZ): 16; ON/OFF ratio (β-gal with vs without cumate) ([13]; 293-CymR clone 23, AdCMV5-Og-LacZ): 7.6

Q: Which results are given for `CN(C)c1ccc(C(=O)O)cc1` [DM PABA, Di-methyl p-aminobenzoic acid]?
A: ability to act as inducer ([2]; 0.02 mM): effective inducers; ability to act as inducer ([2]; 0.1 mM): just as good an inducer as parent cumate

Q: Which “activity as activator” value [1] does the source give for `CC(C)Cc1ccc(C(=O)O)cc1` [C6, p-isobutylbenzoic acid] here?
A: good activators

Q: Which “ability to act as inducer” value [2] does the source give for sodium toluate here?
A: ineffective

Q: With `O=C(O)c1ccccc1` [benzoic acid, Benzoic acid] as the compound, how does the “ability to act as inducer” value [2] read?
A: none of these compounds could act as effective inducers

Q: Which “activity as activator” value [1] does the source give for `CN(C)c1ccc(C(=O)O)cc1` [C11, p-N-dimethylaminobenzoic acid] here?
A: good activators

Q: Which “ability to act as inducer” value [2] does the source give for `O=C(O)c1cc2ccccc2[nH]1` [indole-2-carboxylic acid] here?
A: none of these compounds could act as effective inducers

Q: Which results are given for Na^+ trimethyl cumate?
A: response compared with parental cumate [2]: not as good as the parental cumate; ability to act as inducer ([2]; 0.1 mM): effective inducer

Q: Which “ability to act as inducer” value [2] does the source give for `CCc1ccc(C(=O)[O-])cc1.[Na+]` [Na^+ 4-ethylbenzoate] here?
A: acts as an inducer

Q: What about the “response compared with parental cumate” value [2] of the same compound?
A: not as good as the parental cumate

Q: For `CCCc1ccc(C(=O)O)cc1` [C4, p-Propylbenzoic acid], which “activity as activator” value [1] is on record?
A: good activators

Q: For `O=C(O)c1cccc(O)c1` [3-hydroxybenzoic acid, 3- and 4-hydroxybenzoic acids], which “ability to act as inducer” value [2] is on record?
A: none of these compounds could act as effective inducers

Q: Which water solubility [14] does the source give for `CC(C)c1ccc(C(=O)[O-])cc1.[Na+]` [sodium salt of cumic acid] here?
A: water-soluble

Q: And the “threshold of concentration giving a response, vs cumic acid” value [2]?
A: did not change appreciably

Q: Which “ability to act as inducer” value [2] does the source give for `O=C(O)c1c[nH]c2ccccc12` [indole-3-carboxylic acid] here?
A: none of these compounds could act as effective inducers

Q: With `O=C([O-])c1ccccc1.[Na+]` [sodium benzoate] as the compound, how does the “ability to act as inducer” value [2] read?
A: ineffective

Q: With ethyltoluene as the compound, how does the “ability to act as inducer” value [2] read?
A: none of these compounds could act as effective inducers

Q: With `Cc1ccc(CO)cc1` [4-methyl benzylalcohol] as the compound, how does the “ability to act as inducer” value [2] read?
A: none of these compounds could act as effective inducers
